“And” between values parts separate entries of the source, which are not always exact repeats. Equal entries are not always repeated.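 Five concentrations, 48 hours, 96-well plates. GI50 is the concentration that inhibits growth by half. At the TGI there is no net growth.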
Key:
Test in all cases: DTP human tumour cell line panel, 48 h
[1] = tested on: NCI-H23 lung
[2] = tested on: MOLT-4 leukemia
[3] = tested on: SK-MEL-28 melanoma
[4] = tested on: DMS 114 small cell lung
[5] = tested on: RXF 393 renal
[6] = tested on: KM20L2 colon
[7] = tested on: OVCAR-4 ovarian
[8] = tested on: SN12C renal
[9] = tested on: LXFL 529 NSCLC
[10] = tested on: U251 CNS
[11] = tested on: A498 renal
[12] = tested on: UO-31 renal
[13] = tested on: SNB-19 CNS
[14] = tested on: SF-295 CNS
[15] = tested on: OVCAR-3 ovarian
[16] = tested on: COLO 205 colon
[17] = tested on: HOP-18 NSCLC
[18] = tested on: NCI-H460 lung
[19] = tested on: NCI-H226 lung
[20] = tested on: SW-620 colon
[21] = tested on: M19-MEL melanoma
[22] = tested on: K-562 leukemia
[23] = tested on: SF-539 CNS
[24] = tested on: EKVX NSCLC
[25] = tested on: KM12 colon
[26] = tested on: SNB-75 CNS
[27] = tested on: SK-MEL-5 melanoma
[28] = tested on: HCC-2998 colon
[29] = tested on: M14 melanoma
[30] = tested on: TK-10 renal

In the case of `CCN(CC)CCCNc1ccc2ncn3c4ccc(O)cc4c(=O)c1c23`, the GI50 [1] is reported as 0.784 µM, the TGI [1] is reported as 14.5 µM and the TGI [2] is reported as 0.255 µM and 0.52 µM. The TGI [3] was 25.2 µM, the TGI [4] was 23.8 µM and the GI50 [5] was 0.902 µM. The TGI [5] was 6.35 µM and 2.69 µM, the TGI [6] was 18.2 µM and the TGI [7] was 11.9 µM. It also gave a GI50 [8] of 2.78 µM, a TGI [8] of 14.7 µM and a TGI [9] of 18.5 µM. For the same compound, the GI50 [10] was 2.05 µM, the TGI [10] was 17.7 µM and the GI50 [11] was 0.6 µM. It also gave a TGI [11] of 17.8 µM, a GI50 [12] of 0.295 µM and a TGI [12] of 13.4 µM. For the same compound, the GI50 [13] was 0.493 µM, the TGI [13] was 20.2 µM and the GI50 [14] was 1.83 µM. For the same compound, the TGI [14] was 15.9 µM, the TGI [15] was 22.2 µM and the TGI [16] was 19.4 µM. The TGI [17] was 34.6 µM, the GI50 [18] was 0.0627 µM and the TGI [18] was 5.78 µM. For the same compound, the TGI [19] was 3.5 µM, the GI50 [20] was 0.832 µM and the TGI [20] was 15.8 µM. It also gave a TGI [21] of 21.3 µM, a GI50 [22] of 1.3 µM and a TGI [22] of 20.5 µM. For the same compound, the GI50 [23] was 4.51 µM, the TGI [23] was 17.2 µM and the GI50 [24] was 5.51 µM. It also gave a TGI [24] of 19 µM, a GI50 [25] of 2.6 µM and a TGI [25] of 19.5 µM. The GI50 [26] was 2.3 µM, the TGI [26] was 8.49 µM and 8.39 µM and the TGI [27] was 18.3 µM. For the same compound, the GI50 [28] was 3.59 µM, the TGI [28] was 17.8 µM and the TGI [29] was 16 µM. For the same compound, the GI50 [30] was 2.23 µM and the TGI [30] was 21.2 µM.
